Assay results as given in US10391095B2, “DNA-PK inhibitors” (Vertex Pharmaceuticals Incorporated, priority 2012, dated 2019).

What follows are molecules tested against DNA-PK (Homo sapiens, UniProt P78527) (assay: DNA-PK inhibition assay (radiometric, 33P-ATP)). Settings: 100 μM ATP, competitive tight-binding fit.
Format: biochemical
Procedure, shortened: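 Approx. 6 nM DNA-PK with 10 µg/mL sheared dsDNA, 0.8 mg/mL peptide substrate and 100 µM 33P-ATP in HEPES pH 7.5, 10 mM MgCl2; 45 min, phosphoric acid quench. Phosphopeptide captured on filter plates and counted by scintillation; Ki from a competitive tight-binding model fit.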

Row | Ki | SMILES
1 | < 30 nM | CNC(=O)c1c(F)cnc2c([C@H](C)CNc3cc(-c4cnc(C)s4)ncn3)cccc12 [Compound 828]
2 | < 30 nM | CCc1ncc(-c2cc(NC[C@@H](C)c3cccc4c(C(=O)NC)ccnc34)ncn2)cn1 [Compound 829]
3 | < 30 nM | CCc1ncc(-c2cc(NC[C@@H](C)c3ccc(F)c4c(C(=O)NC)ccnc34)ncn2)cn1 [Compound 830]
4 | < 30 nM | CNC(=O)c1ccnc2c([C@H](C)CNc3cc(-c4cnc(C5CCOCC5)nc4)ncn3)cccc12 [Compound 831]
5 | < 30 nM | CNC(=O)c1ccnc2c([C@H](C)CNc3cc(-c4cnc(C5CCOCC5)nc4)ncn3)ccc(F)c12 [Compound 832]
6 | < 30 nM | CNC(=O)c1c(F)cnc2c([C@H](C)CNc3cc(-c4cnc(C5CCOCC5)nc4)ncn3)cccc12 [Compound 833]
7 | < 30 nM | CNC(=O)c1ccnc2c([C@H](C)CNc3cc(-c4ccc5c(c4)CN(C(=O)COC)CC5)ncn3)cccc12 [Compound 834]
8 | < 30 nM | CNC(=O)c1ccnc2c([C@H](C)CNc3cc(-c4ccc5c(c4)CCN(C(=O)COC)C5)ncn3)cccc12 [Compound 835]
9 | < 30 nM | Cc1ccc(-c2cc(NC[C@@H](C)c3cncc4c3OCCN4)ncn2)cn1 [Compound 837]
10 | < 30 nM | Cc1ccc(-c2cc(NCC(C)c3cccc4c(C)ncnc34)ncn2)cn1 (centres unmarked) [Compound 838]
11 | < 30 nM | CNC(=O)c1ccnc2c([C@H](C)CNc3cc(-c4ccc(C)s4)ncn3)cccc12 [Compound 839]
12 | < 30 nM | CNC(=O)c1ccnc2c([C@H](C)CNc3cc(-c4cncc(COC)c4)ncn3)cccc12 [Compound 840]
13 | < 30 nM | CNC(=O)c1ccnc2c([C@H](C)CNc3cc(-c4cnnc(C)c4)ncn3)cccc12 [Compound 841]
14 | < 30 nM | CNC(=O)c1ccnc2c([C@H](C)CNc3cc(-c4ccc5c(c4)CCO5)ncn3)cccc12 [Compound 842]
15 | < 30 nM | CNC(=O)c1ccnc2c([C@H](C)CNc3cc(-c4ccc5c(c4)OCCN5C)ncn3)cccc12 [Compound 843]
16 | < 30 nM | [2H]c1nc(C)nc([2H])c1-c1cc(NC[C@@H](C)c2cccc3c(C(=O)NC)ccnc23)ncn1 [Compound 844, (S)—N-methyl-8-(1-((2′-methyl-4′,6′-dideutero-[4,5′-bipyrimidin]-6-yl)amino)propan-2-yl)quinoline-4-carboxamide]
17 | < 30 nM | CNC(=O)c1ccnc2c([C@H](C)CNc3cc(-c4ccc(C5CCC5)nc4)ncn3)cccc12 [Compound 845]
18 | < 30 nM | CNC(=O)c1ccnc2c([C@H](C)CNc3cc(-c4cnc(C5CCC5)nc4)ncn3)cccc12 [Compound 846]
19 | < 30 nM | CNC(=O)c1ccnc2c([C@H](C)CNc3cc(-c4ccc(C5CC5)nc4)ncn3)cccc12 [Compound 847]
20 | < 30 nM | CNC(=O)c1ccnc2c([C@H](C)CNc3cc(-c4ccc(C(C)C)nc4)ncn3)cccc12 [Compound 848]
21 | < 30 nM | CNC(=O)c1ccnc2c([C@H](C)CNc3cc(-c4cnc(C(C)C)nc4)ncn3)cccc12 [Compound 849]
22 | < 30 nM | CNC(=O)c1ccnc2c([C@H](C)CNc3cc(-c4ccc(C5CCC5)nc4)ncn3)ccc(F)c12 [Compound 850]
23 | < 30 nM | CNC(=O)c1ccnc2c([C@H](C)CNc3cc(-c4cnc(C5CCC5)nc4)ncn3)ccc(F)c12 [Compound 851]
24 | < 30 nM | CNC(=O)c1ccnc2c([C@H](C)CNc3cc(-c4ccc(C5CC5)nc4)ncn3)ccc(F)c12 [Compound 852]

Row | Ki | SMILES
25 | < 30 nM | CNC(=O)c1ccnc2c([C@H](C)CNc3cc(-c4ccc(C(C)C)nc4)ncn3)ccc(F)c12 [Compound 853]
26 | < 30 nM | CNC(=O)c1ccnc2c([C@H](C)CNc3cc(-c4cnc(C(C)C)nc4)ncn3)ccc(F)c12 [Compound 854]
27 | < 30 nM | CNC(=O)c1c(F)cnc2c([C@H](C)CNc3cc(-c4ccc(C5CCC5)nc4)ncn3)cccc12 [Compound 855]
28 | < 30 nM | CNC(=O)c1c(F)cnc2c([C@H](C)CNc3cc(-c4cnc(C5CCC5)nc4)ncn3)cccc12 [Compound 856]
29 | < 30 nM | CNC(=O)c1c(F)cnc2c([C@H](C)CNc3cc(-c4ccc(C5CC5)nc4)ncn3)cccc12 [Compound 857]
30 | < 30 nM | CNC(=O)c1c(F)cnc2c([C@H](C)CNc3cc(-c4ccc(C(C)C)nc4)ncn3)cccc12 [Compound 858]
31 | < 30 nM | CNC(=O)c1ccnc2c([C@H](C)CNc3cc(-c4ccc(CO)s4)ncn3)cccc12 [Compound 860]
32 | < 30 nM | [2H]c1nc(C)nc([2H])c1-c1cc(NC[C@@H](C)c2ccc(F)c3c(C(=O)NC)ccnc23)ncn1 [Compound 861]
33 | < 30 nM | [2H]c1nc(C)nc([2H])c1-c1cc(NC[C@@H](C)c2cccc3c(C(=O)NC)c(F)cnc23)ncn1 [Compound 862]
34 | < 30 nM | CNC(=O)c1ccnc2c([C@H](C)CNc3cc(-c4cc(C)nc(OC)c4)ncn3)cccc12 [Compound 863]
35 | < 30 nM | CNC(=O)c1ccnc2c([C@H](C)CNc3cc(-c4ccc5c(c4)N(C)CCO5)ncn3)cccc12 [Compound 864]
36 | < 30 nM | CNC(=O)c1ccnc2c([C@H](C)CNc3cc(-c4ccc(C(C)(C)O)nc4)ncn3)ccc(F)c12 [Compound 865]
37 | < 30 nM | CNC(=O)c1c(F)cnc2c([C@H](C)CNc3cc(-c4ccc(C(C)(C)O)nc4)ncn3)cccc12 [Compound 866]
38 | < 30 nM | CNC(=O)c1ccnc2c([C@H](C)CNc3cc(-c4cnc(N)c(F)c4)ncn3)cccc12 [Compound 867]
39 | < 30 nM | CNC(=O)c1ccnc2c([C@H](C)CNc3cc(-c4cncc(C#N)c4)ncn3)cccc12 [Compound 868]
40 | < 30 nM | CNC(=O)c1ccnc2c([C@H](C)CNc3cc(-c4ccnc(OC)c4)ncn3)cccc12 [Compound 869]
41 | < 30 nM | CNC(=O)c1ccnc2c([C@H](C)CNc3cc(-c4cnc(C)c(C)c4)ncn3)cccc12 [Compound 870]
42 | < 30 nM | CNC(=O)c1ccnc2c([C@H](C)CNc3cc(-c4ccc(C#N)c(F)c4)ncn3)cccc12 [Compound 871]
43 | < 30 nM | CNC(=O)c1ccnc2c([C@H](C)CNc3cc(-c4cc(F)c(OC(C)C)c(F)c4)ncn3)cccc12 [Compound 872]
44 | < 30 nM | CNC(=O)c1ccnc2c([C@H](C)CNc3cc(-c4cc(F)c(F)c(F)c4)ncn3)cccc12 [Compound 873]
45 | < 30 nM | CNC(=O)c1ccnc2c([C@H](C)CNc3cc(-c4cncc(N)c4)ncn3)cccc12 [Compound 874]
46 | < 30 nM | CCOc1cc(-c2cc(NC[C@@H](C)c3cccc4c(C(=O)NC)ccnc34)ncn2)cnc1C [Compound 875]
47 | < 30 nM | CNC(=O)c1ccnc2c([C@H](C)CNc3cc(-c4ccnc(N)c4)ncn3)cccc12 [Compound 876]
48 | < 30 nM | CNC(=O)c1ccnc2c([C@H](C)CNc3cc(-c4cncc(S(C)(=O)=O)c4)ncn3)cccc12 [Compound 877]

Row | Ki | SMILES
49 | < 30 nM | CNC(=O)c1ccnc2c([C@H](C)CNc3cc(-c4cncc(OC)c4)ncn3)cccc12 [Compound 878]
50 | < 30 nM | CNC(=O)c1ccnc2c([C@H](C)CNc3cc(-c4cncc(C(C)(C)O)c4)ncn3)cccc12 [Compound 879]
51 | < 30 nM | CNC(=O)c1ccnc2c([C@H](C)CNc3cc(-c4cnc(N5CCOCC5)c(C)c4)ncn3)cccc12 [Compound 880]
52 | < 30 nM | CNC(=O)c1ccnc2c([C@H](C)CNc3cc(-c4cnc(OC)c(F)c4)ncn3)cccc12 [Compound 881]
53 | < 30 nM | CNC(=O)c1ccnc2c([C@H](C)CNc3cc(-c4cnc(OC)c(CO)c4)ncn3)cccc12 [Compound 882]
54 | < 30 nM | CNC(=O)c1c(F)cnc2c([C@H](C)CNc3cc(-c4cnc(OC)c(CO)c4)ncn3)cccc12 [Compound 884]
55 | < 30 nM | CNC(=O)c1ccnc2c([C@H](C)CNc3cc(-c4cnc(CN(C)C)nc4)ncn3)cccc12 [Compound 885]
56 | < 30 nM | CNC(=O)c1ccnc2c([C@H](C)CNc3cc(-c4cnc(COC)nc4)ncn3)cccc12 [Compound 886]
57 | < 30 nM | CNC(=O)c1ccnc2c([C@H](C)CNc3cc(-c4cc(OC)nc(OC)c4)ncn3)cccc12 [Compound 889]
58 | < 30 nM | CNC(=O)c1ccnc2c([C@H](C)CNc3cc(-c4ccnc(CO)c4)ncn3)cccc12 [Compound 890]
59 | < 30 nM | CNC(=O)c1ccnc2c([C@H](C)CNc3cc(-c4ccc(OCC5CC5)nc4)ncn3)cccc12 [Compound 891]
60 | < 30 nM | CNC(=O)c1ccnc2c([C@H](C)CNc3cc(-c4ccnc(N5CCCC5=O)c4)ncn3)cccc12 [Compound 893]
61 | < 30 nM | CNC(=O)c1ccnc2c([C@H](C)CNc3cc(-c4ccnc(NC5CC5)c4)ncn3)cccc12 [Compound 894]
62 | < 30 nM | CNC(=O)c1c(F)cnc2c([C@H](C)CNc3cc(-c4ccc(OCC5CC5)nc4)ncn3)cccc12 [Compound 896]
63 | < 30 nM | CCOc1cc(-c2cc(NC[C@@H](C)c3cccc4c(C(=O)NC)c(F)cnc34)ncn2)cnc1OCC [Compound 897]
64 | < 30 nM | CNC(=O)c1c(F)cnc2c([C@H](C)CNc3cc(-c4cnc(OC)c(OC)c4)ncn3)cccc12 [Compound 898]
65 | < 30 nM | CNC(=O)c1c(F)cnc2c([C@H](C)CNc3cc(-c4ccc(F)nc4)ncn3)cccc12 [Compound 899]
66 | < 30 nM | CNC(=O)c1c(F)cnc2c([C@H](C)CNc3cc(-c4ccc(OC)nc4)ncn3)cccc12 [Compound 900]
67 | < 30 nM | CNC(=O)c1c(F)cnc2c([C@H](C)CNc3cc(-c4ccc(C#N)nc4)ncn3)cccc12 [Compound 901]
68 | < 30 nM | CNC(=O)c1c(F)cnc2c([C@H](C)CNc3cc(-c4cnc(OC)c(N)c4)ncn3)cccc12 [Compound 902]
69 | < 30 nM | CNC(=O)c1ccnc2c([C@H](C)CNc3cc(-c4ccnc(C)c4)ncn3)ccc(F)c12 [Compound 903]
70 | < 30 nM | CNC(=O)c1ccnc2c([C@H](C)CNc3cc(-c4ccc(OCC5CC5)nc4)ncn3)ccc(F)c12 [Compound 904]
71 | < 30 nM | CCOc1cc(-c2cc(NC[C@@H](C)c3ccc(F)c4c(C(=O)NC)ccnc34)ncn2)cnc1OCC [Compound 905]
